Source: US8124587B2, “2-(aminomethyl)-5-chlorobenzylamide derivatives and their use as inhibitors of the clotting factor Xa” (The Medicines Company (Leipzig) GmbH, priority 2005, dated 2012)
Where two headings read alike, the source gives them in different places.

Legend:
Type in all cases: biochemical
[1] = target: T1, Thrombin (bovine) (Bos taurus, UniProt P00735); assay: Enzyme kinetic determination of Ki with chromogenic substrate, thrombin
T1 construct: Thrombin (bovine)
Protocol: (§1) The inhibitory effect of the inhibitors for factor Xa, thrombin and plasmin were estimated using specific synthetic chromogenic substrates. […] The inhibitor was dissolved in Tris buffer, the substrates (all Pentapharm Ltd., Basel, CH) in water. […] Three different substrate concentrations and five different inhibitor concentrations were measured in each case.
(§2) The following enzymes and substrates were used for the measurements:
Enzyme content: 2.5 IE/ml (in 0.9% NaCl with 1% HSA)
Substrate: CH3SO2-D-HHT-Gly-Arg-pNA (Pefachrome tPA),
concentration: 2, 1 and 0.5 mM; reaction time: 3 min

[2] = target: T2, Human plasmin (Homo sapiens, UniProt P00747); assay: Enzyme kinetic determination of Ki with chromogenic substrate, plasmin; conditions: Tris buffer pH 8.0, 25° C., Chromozym PL
T2 construct: Human plasmin (CHROMOGENIX, Milano, Italy); purchased CHROMOGENIX, Milano, Italy
T2 sequence (P00747 581-810 limits assumed): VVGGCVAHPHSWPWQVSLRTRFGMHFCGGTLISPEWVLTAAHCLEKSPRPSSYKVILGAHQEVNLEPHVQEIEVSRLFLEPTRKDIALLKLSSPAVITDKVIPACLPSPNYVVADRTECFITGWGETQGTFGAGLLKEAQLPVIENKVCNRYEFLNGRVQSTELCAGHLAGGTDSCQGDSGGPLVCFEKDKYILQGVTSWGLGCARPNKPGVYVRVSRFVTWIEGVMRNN
T2 sequence (P00747 97-580 limits assumed): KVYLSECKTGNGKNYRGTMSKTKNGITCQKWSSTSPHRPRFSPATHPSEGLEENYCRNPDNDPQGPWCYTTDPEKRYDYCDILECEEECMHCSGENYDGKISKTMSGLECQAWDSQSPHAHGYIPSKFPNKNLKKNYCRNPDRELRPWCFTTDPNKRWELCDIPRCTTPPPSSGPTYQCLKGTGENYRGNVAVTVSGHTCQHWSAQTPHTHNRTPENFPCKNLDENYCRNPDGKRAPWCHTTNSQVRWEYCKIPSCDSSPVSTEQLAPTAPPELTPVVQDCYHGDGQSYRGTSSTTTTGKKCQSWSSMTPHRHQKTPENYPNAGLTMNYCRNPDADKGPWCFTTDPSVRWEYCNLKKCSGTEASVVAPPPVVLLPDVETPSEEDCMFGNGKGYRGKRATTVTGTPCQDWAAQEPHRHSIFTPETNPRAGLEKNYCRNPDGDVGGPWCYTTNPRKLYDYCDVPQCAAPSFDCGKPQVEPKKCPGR
Protocol: as §1, §2
Human plasmin (CHROMOGENIX, Milano, Italy)
Substrate: Tos-Gly-Pro-Lys-pNA (Chromozym PL),
concentration: 2, 1 and 0.67 mM; reaction time: 3 min

[3] = target: T3, Human factor Xa (Homo sapiens, UniProt P00742); assay: Enzyme kinetic determination of Ki with chromogenic substrate, factor Xa; conditions: Tris buffer pH 8.0, 25° C., Pefachrome Xa, read-out: Ki (nM) FXa
T3 construct: Human factor Xa (Enzyme Research Lab., purchased from Haemochrom Diagnostica GmbH, Essen); purchased Enzyme Research Lab; (via Haemochrom Diagnostica GmbH, Essen)
T3 sequence (P00742 235-488 limits assumed): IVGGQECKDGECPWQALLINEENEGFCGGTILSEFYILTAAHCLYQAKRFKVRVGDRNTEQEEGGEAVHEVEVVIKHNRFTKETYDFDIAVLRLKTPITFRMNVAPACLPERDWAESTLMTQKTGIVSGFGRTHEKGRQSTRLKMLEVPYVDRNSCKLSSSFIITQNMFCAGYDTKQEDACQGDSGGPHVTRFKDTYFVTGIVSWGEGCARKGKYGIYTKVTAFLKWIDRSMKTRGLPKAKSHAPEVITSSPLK
T3 sequence (P00742 41-179 limits assumed): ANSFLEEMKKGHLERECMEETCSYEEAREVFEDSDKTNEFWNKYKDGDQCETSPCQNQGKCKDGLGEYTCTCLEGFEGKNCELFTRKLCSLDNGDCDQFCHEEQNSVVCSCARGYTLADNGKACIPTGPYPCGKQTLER
Protocol: as §1, §2
Human factor Xa (Enzyme Research Lab., purchased from Haemochrom Diagnostica GmbH, Essen)
Enzyme content: 0.67 μg/ml
Substrate: CH3OCO-D-Cha-Gly-Arg-pNA (Pefachrome Xa),
concentration: 4, 2 and 1 mM; reaction time: 4 min

[4] = bovine thrombin, Tris buffer pH 8.0, 25° C., Pefachrome tPA, read-out: Ki (nM) Thrombin

Ki [1] [nM] | Ki [2] [nM] | Ki [3] [nM] | Ki [1, 4] [nM] | Structure (SMILES)
170 | 600000 | – | – | NCc1ccc(Cl)cc1CNC(=O)CNC(=O)[C@@H](CCc1cccc[n+]1[O-])NS(=O)(=O)Cc1ccccc1 [Inhibitor 1]
20500 | 400000 | – | – | NCc1ccc(Cl)cc1CNC(=O)[C@H](CCC(=O)O)NC(=O)C(CCc1cccc[n+]1[O-])NS(=O)(=O)Cc1ccccc1 (stereo partly drawn) [Inhibitor 6]
0.56 | 8470 | – | – | NCc1ccc(Cl)cc1CNC(=O)[C@@H]1CCCN1C(=O)[C@@H](CCc1cccc[n+]1[O-])NS(=O)(=O)Cc1ccccc1 [Inhibitor 7]
– | 540000 | 2200 | 1600 | NCc1ccc(Cl)cc1CNC(=O)CNC(=O)[C@H](O)CCc1ccccc1 [Inhibitor 8]
– | 78000 | 0.24 | 180 | COC(=O)CC[C@H](NC(=O)[C@@H](CCc1cccc[n+]1[O-])NS(=O)(=O)Cc1ccccc1)C(=O)NCc1cc(Cl)ccc1CN [Inhibitor 11]
– | 2300 | 0.54 | 750 | NCc1ccc(Cl)cc1CNC(=O)[C@H](CN)NC(=O)[C@@H](CCc1cccc[n+]1[O-])NS(=O)(=O)Cc1ccccc1 [Inhibitor 12]
– | > 1e+06 | 0.68 | 140 | NCc1ccc(Cl)cc1CNC(=O)CNC(=O)C(CCc1ccccn1)NS(=O)(=O)Cc1ccc(CC(=O)O)cc1 (stereo not drawn) [Inhibitor 15]
– | > 1e+06 | 0.18 | 540 | NCc1ccc(Cl)cc1CNC(=O)[C@H](CO)NC(=O)[C@@H](CCc1cccc[n+]1[O-])NS(=O)(=O)Cc1ccc(CC(=O)O)cc1 [Inhibitor 17]
– | > 1e+06 | 0.67 | 430 | COC(=O)Cc1ccc(CS(=O)(=O)NC(CCc2ccccn2)C(=O)N[C@@H](CO)C(=O)NCc2cc(Cl)ccc2CN)cc1 (stereo partly drawn) [Inhibitor 18]
– | 140000 | 0.3 | 360 | COC(=O)c1ccc(CS(=O)(=O)NC(CCc2cccc[n+]2[O-])C(=O)NCC(=O)NCc2cc(Cl)ccc2CN)cc1 (stereo not drawn) [Inhibitor 20]
– | 98000 | 1.05 | 100 | COC(=O)c1ccc(CS(=O)(=O)NC(CCc2ccccn2)C(=O)NCC(=O)NCc2cc(Cl)ccc2CN)cc1 (stereo not drawn) [Inhibitor 22]
– | > 1e+06 | 1.4 | 2500 | NCc1ccc(Cl)cc1CNC(=O)CNC(=O)C(CCc1cccc[n+]1[O-])NS(=O)(=O)Cc1ccc[n+]([O-])c1 (stereo not drawn) [Inhibitor 25]
22 | 98000 | – | – | NCc1ccc(Cl)cc1CNC(=O)[C@@H]1CCCN1C(=O)[C@@H](CCc1cccc[n+]1[O-])NS(=O)(=O)CC(=O)O [Inhibitor 27]
1600 | 305000 | 7.6 | – | CC(C)OC(=O)CS(=O)(=O)NC(CCc1cccc[n+]1[O-])C(=O)NCC(=O)NCc1cc(Cl)ccc1CN (stereo not drawn) [Inhibitor 28]
140 | – | – | – | NCc1ccc(Cl)cc1CNC(=O)CNC(=O)C(CCc1cccc[n+]1[O-])NC(=O)CC(=O)O (stereo not drawn) [Inhibitor 32]
3.8 | – | – | – | CCOC(=O)CN[C@H](CCc1ccccn1)C(=O)N1CCC[C@H]1C(=O)NCc1cc(Cl)ccc1CN [Inhibitor 34]
17.2 | 100000 | 0.4 | – | NCc1ccc(Cl)cc1CNC(=O)[C@@H]1CCCN1C(=O)[C@@H](CCc1cccc[n+]1[O-])NCC(=O)O [Inhibitor 35]

Second part, the compound before the results:

Structure (SMILES) | Ki [1] [nM] | Ki [2] [nM] | Ki [3] [nM] | Ki [1, 4] [nM]
NCc1ccc(Cl)cc1CNC(=O)[C@H](CO)NC(=O)C(CCc1ccccn1)NS(=O)(=O)Cc1ccccc1 (stereo partly drawn) [Inhibitor 3] | 260 | 350000 | – | –
CCCS(=O)(=O)NC(CCc1cccc[n+]1[O-])C(=O)NCC(=O)NCc1cc(Cl)ccc1CN (stereo not drawn) [Inhibitor 4] | 2630 | 280000 | – | –
COC(=O)CC[C@H](NC(=O)C(CCc1cccc[n+]1[O-])NS(=O)(=O)Cc1ccccc1)C(=O)NCc1cc(Cl)ccc1CN (stereo partly drawn) [Inhibitor 5] | – | 130000 | 0.43 | 350
NCc1ccc(Cl)cc1CNC(=O)CNC(=O)C(CCc1cccc[n+]1[O-])NCC(=O)O (stereo not drawn) [Inhibitor 9] | 125000 | > 1e+06 | – | –
C[C@H](NC(=O)[C@@H](CCc1cccc[n+]1[O-])NS(=O)(=O)Cc1ccccc1)C(=O)NCc1cc(Cl)ccc1CN [Inhibitor 10] | 170 | 85000 | – | –
COC(=O)Cc1ccc(CS(=O)(=O)NC(CCc2cccc[n+]2[O-])C(=O)NCC(=O)NCc2cc(Cl)ccc2CN)cc1 (stereo not drawn) [Inhibitor 13] | 1010 | 200000 | – | –
NCc1ccc(Cl)cc1CNC(=O)CNC(=O)C(CCc1cccc[n+]1[O-])NS(=O)(=O)Cc1ccc(CC(=O)O)cc1 (stereo not drawn) [Inhibitor 14] | 930 | > 1e+06 | – | –
NCc1ccc(Cl)cc1CNC(=O)[C@H](CO)NC(=O)[C@@H](CCc1ccccn1)NS(=O)(=O)Cc1ccc(CC(=O)O)cc1 [Inhibitor 19] | – | 100000 | 0.78 | 210
NCc1ccc(Cl)cc1CNC(=O)CNC(=O)C(CCc1cccc[n+]1[O-])NS(=O)(=O)Cc1ccc(C(=O)O)cc1 (stereo not drawn) [Inhibitor 21] | – | 130000 | 4.1 | 1300
NCc1ccc(Cl)cc1CNC(=O)CNC(=O)C(CCc1ccccn1)NS(=O)(=O)Cc1ccc(C(=O)O)cc1 (stereo not drawn) [Inhibitor 23] | – | 140000 | 11 | 330
COC(=O)c1ccc(CS(=O)(=O)NC(CCc2cccc[n+]2[O-])C(=O)N[C@@H](CO)C(=O)NCc2cc(Cl)ccc2CN)cc1 (stereo partly drawn) [Inhibitor 24] | – | 160000 | 0.48 | 930
NCc1ccc(Cl)cc1CNC(=O)CNC(=O)C(CCc1ccccn1)NS(=O)(=O)Cc1cccnc1 (stereo not drawn) [Inhibitor 26] | – | 210000 | 0.34 | 140
NCc1ccc(Cl)cc1CNC(=O)CNC(=O)C(CCc1cccc[n+]1[O-])NS(=O)(=O)CC(=O)O (stereo not drawn) [Inhibitor 29] | 8300 | > 1e+06 | – | –
CC(C)OC(=O)CS(=O)(=O)NC(CCc1ccccn1)C(=O)NCC(=O)NCc1cc(Cl)ccc1CN (stereo not drawn) [Inhibitor 30] | – | 290000 | 2.1 | 66
NCc1ccc(Cl)cc1CNC(=O)[C@@H]1CCCN1C(=O)C(CCc1cccc[n+]1[O-])NC(=O)C(=O)O (stereo partly drawn) [Inhibitor 31] | – | 80000 | 0.88 | 43
CCOC(=O)CN[C@H](CCc1cccc[n+]1[O-])C(=O)N1CCC[C@H]1C(=O)NCc1cc(Cl)ccc1CN [Inhibitor 33] | – | 240000 | 0.4 | –
NCc1ccc(Cl)cc1CNC(=O)[C@@H]1CCCN1C(=O)[C@@H](CCc1cccc[n+]1[O-])NCC(=O)OC1CCCCC1 [Inhibitor 38] | – | – | 1.01 | –
